Test results published in patent publication US8911805B2, “Calcium preparation and method of production thereof” (Toyo Suisan Kaisha, Ltd., priority 2010, dated 2014).

Test system: bone loss in low-Ca fed rats
Experiment: Oral study of solid preparation of calcium in rats (dry weight of tibia)
Type: in vivo, Crl:CD (SD) rats
Conditions: compared to the low calcium fed group; feed Ca content 0.5%, three weeks
Procedure: A test for the improvement, effect of the solid preparation or calcium of the present invention on bone loss in low-Ca fed rats was performed using 5-week-old male Crl:CD (SD) rats. AIN-93M was administered to 4-week old rats. After habituation for one week, various kinds of feeds were administered to the rats for three weeks. As a basic feed, a feed obtained by modifying the content of calcium in AIN-93M to 0.2% (normal feed: 0.5%) was used.
The test groups included the following six groups (one group: eight rats): a low calcium fed group to which a basic feed was administered; a group to which a basic feed containing calcium carbonate at a Ca content of 0.5% was administered; a group to which a basic feed containing freeze-dried powder of a C100P100Ca200K225 solution after aging (at 37° C. for two days) at a Ca content of 0.5% was administered; a group to which a basic feed containing freeze-dried powder of a C200P100Ca200K550 solution after aging (at 37° C. for one day) a Ca content of 0.5% was administered; a group to which a basic feed containing freeze-dried powder of a C100P100Ca200K225 solution before aging at a Ca content of 0.5% was administered; and a group to which basic feed containing calcium lactate at a Ca content of 0.5% was administered.
After three weeks, the dry weight of the extracted tibia was measured. […]

## O=C([O-])[O-].[Ca+2] [calcium carbonate]
  bone weight (dry weight of the extracted tibia): significantly increased

## CC(O)C(=O)[O-].CC(O)C(=O)[O-].[Ca+2] (centres unmarked) [calcium lactate]
  bone weight (dry weight of the extracted tibia): significantly increased
